Reference: paper PMC7076525, “Pharmacokinetics and Intestinal Metabolism of Compound K in Rats and Mice” (Pharmaceutics, 2020)
Values after ≈ are worked out from the molar mass of the structure shown. Values joined by “and” are separate entries in the source; they are usually repeats but may differ in a detail not shown here. Identical values can stand only once. Like-named read-outs stand apart in the source and are kept apart here.

Assays:
[1] = design: method as in PMID 28955238; details: humans, cited from earlier work
[2] = design: method as in PMID 16302287, PMID 32148404, PMID 30013338, PMID 26680316; details: cited from earlier work
Caco-2 cells = tested on: Caco-2 cells; design: method as in PMID 16302287, PMID 32148404, PMID 30013338, PMID 26680316; details: cited from earlier work
[3] = Pharmacokinetic study after intravenous compound K (2 mg/kg) in SD rats: plasma, feces, urine; details: for Recovery48 h Feces: over 48 h (Table 4)
[4] = Pharmacokinetic study after intravenous compound K (2 mg/kg) in ICR mice: plasma, feces, urine
[5] = Pharmacokinetics, biliary excretion and metabolism of compound K in bile cannulated and non-bile cannulated rats; type: in vivo, SD rats; details: for AUC(0-inf) / half-life / AUC(0-t) / C0: SD, rat, plasma, iv; for AUC(0-t): read-out: AUC12 h; for C0: read-out: C0 (initial plasma concentration)
Procedure: SD rats were randomly divided into two groups: the non-bile cannulated control group and the bile cannulated group. For the bile cannulated rats, the femoral artery, femoral vein, and bile duct were cannulated with polyethylene tubes (PE-50 and PE-10; Jungdo, Seoul, Korea) under light anesthesia with isoflurane. For the control group, the femoral artery and femoral vein were cannulated with PE-50. Compound K was injected intravenously via the femoral vein at 2 mg/kg. Blood samples (approximately 200 µL) were collected from the femoral artery at 0, 0.25, 0.5, 1, 2, 4, and 8 h after the compound K injection. After each blood sampling, normal saline was injected into the femoral vein to compensate for blood loss. Bile samples were collected every 2 h for a total of 12 h. The blood samples were centrifuged at 16,000× g for 10 min, and 50 μL aliquots of plasma and 50 μL aliquots of bile were stored at −80 °C until the compound K analysis. In the non-bile cannulated rats, the complete contents of the entire gastrointestinal tract were collected using a […] filled with 30 mL pre-warmed saline. The contents were homogenized with tissue homogenizer, and 50 μL aliquots of intestinal fecal homogenates were stored at −80 °C until the analysis. The 50 μL samples of plasma, urine, 10% fecal homogenates, bile, and intestinal fecal homogenates were each mixed with 60 μL of IS (20 ng/mL 13C-caffeine in water) and 600 μL of methyl tert-butyl ether (MTBE). The mixtures were vortexed vigorously for 10 min and centrifuged at 16,000× g for 5 min. After centrifugation, the samples were frozen at −80 °C for 2 h. […] The residue was reconfigured with 200 μL of 80% methanol consisting of 0.1% formic acid, and a 10 μL aliquot was injected into the liquid chromatography–tandem mass spectrometry (LC–MS/MS) system. Compound K and PPD concentrations were analyzed using a modified LC-MS/MS method of Jin et al. with an Agilent 6430 triple quadrupole LC-MS/MS system (Agilent, Wilmington, DE, USA). […] The mobile phase consisted of 0.1% formic acid in water (8%) and 0.1% formic acid in methanol (92%) at a flow rate of 0.15 mL/min. Pharmacokinetic parameters were estimated using non-compartmental methods (WinNonlin version 2.0, Pharsight Co., Certara, NJ, USA).

[6] = cited from earlier work
[7] = design: method as in PMID 22584255, PMID 30013338, PMID 26680316; details: cited from earlier work
Oatp transporters [8] = test: Inhibition of hepatic uptake of compound K by rifampin pre-treatment in SD rats; type: in vivo; details: rifampin 20 mg/kg PO 1 h before compound K IV 2 mg/kg, 0.5 and 2 h
Procedure: (§1) To investigate the effect of rifampin (a representative inhibitor of the organic anion-transporting polypeptide (Oatp) transporters) on the hepatic distribution of compound K, ICR mice and SD rats were randomly divided into either control or rifampin groups. The rifampin group was orally administered with rifampin solution (20 mg/kg, dissolved in DMSO: saline = 2:8, v/v) and the control group received only the vehicle via oral gavage. One hour after rifampin treatment, mice and rats received compound K intravenously at a single dose of 2 mg/kg via tail vein. The animals were euthanized and blood samples (approximately 200 µL) were collected from the abdominal artery at 0.5 and 2 h after intravenous injection. The liver tissues were immediately excised, gently washed with ice-cold saline, and homogenized with 4 volumes of saline. Aliquots (50 μL) of plasma and 20% liver homogenates were stored at −80 °C until the analysis of compound K.
(§2) The plasma samples and 20% tissue homogenates samples were each mixed with 60 μL of IS (20 ng/mL 13C-caffeine in water) and 600 μL of MTBE. The mixtures were vortexed vigorously for 10 min and centrifuged at 16,000× g for 5 min. After centrifugation, the samples were frozen at −80 °C for 2 h. The upper layer was transferred to a clean tube and evaporated to dryness under a nitrogen stream. […]

[9] = design: method as in PMID 16302287; details: rats, cited from earlier work
Oatp transporters [10] = test: Inhibition of hepatic uptake of compound K by rifampin pre-treatment in ICR mice; type: in vivo; details: rifampin 20 mg/kg PO 1 h before compound K IV 2 mg/kg, 0.5 and 2 h
Procedure: as §1, §2

[11] = Tissue distribution study after intravenous compound K (2 mg/kg) in ICR mice; type: in vivo; details: compound K IV 2 mg/kg
Procedure: (§3) ICR mice and SD rats received compound K intravenously at a single dose of 2 mg/kg via tail vein and were returned to the metabolic cage with water and chow ad libitum. The animals were euthanized and blood samples (approximately 200 µL) were collected from the abdominal artery at 0.17, 0.5, 2, 4, 8, and 24 h after intravenous injection. The liver, kidney, brain, heart, lung, spleen, and testis were immediately excised, gently washed with ice-cold saline, and weighed. The tissue samples were homogenized with 4 volumes of saline. Aliquots (50 μL) of plasma and 20% tissue homogenates were stored at –80 °C until the analysis of compound K.
(§4) The plasma samples and 20% tissue homogenates samples were each mixed with 60 μL of IS (20 ng/mL 13C-caffeine in water) and 600 μL of MTBE. The mixtures were vortexed vigorously for 10 min and centrifuged at 16,000× g for 5 min. After centrifugation, the samples were frozen at −80 °C for 2 h. The upper layer was transferred to a clean tube and evaporated to dryness under a nitrogen stream. The residue was reconfigured with 200 μL of 80% methanol consisting of 0.1% formic acid, and a 10 μL aliquot was injected into the LC-MS/MS system.
(§5) Compound K and PPD concentrations were analyzed using a modified LC-MS/MS method of Jin et al. with an Agilent 6430 triple quadrupole LC-MS/MS system (Agilent, Wilmington, DE, USA). […]

P-glycoprotein (P-gp) = tested on: P-glycoprotein (P-gp); design: method as in PMID 22584255; details: single oral dose 10 mg/kg; cited from earlier work
[12] = Tissue distribution study after intravenous compound K (2 mg/kg) in SD rats; type: in vivo; details: compound K IV 2 mg/kg
Procedure: as §3, §4, §5

[13] = single oral 200 mg compound K tablet, fasting
[14] = rat, after compound K IV 2 mg/kg
[15] = rats, after compound K IV 2 mg/kg
[16] = ICR, mouse, plasma, iv, 2 mg/kg
[17] = mice, after compound K IV 2 mg/kg
[18] = mouse, after compound K IV 2 mg/kg, over 48 h (Table 4)
[19] = 2 mg/kg, bile cannulated rat, compound K IV 2 mg/kg
[20] = 2 mg/kg, non-bile cannulated rat, compound K IV 2 mg/kg

CC(C)=CCCC(C)(O)C1CCC2(C)C1C(O)CC1C3(C)CCC(O)C(C)(C)C3CCC12C [PPD, 20(S)-protopanaxadiol]
Cmax [1, 13]: 5.7 ng/mL | Tmax [1, 13]: 24.5 h | AUC ratio of PPD to compound K ([1]; single oral 200 mg compound K tablet): 0.04 | LogP value [2]: 5.53 | permeability (Caco-2 cells): 1.15e-06 cm/s | concentration at 48 h ([3]; SD, rat, plasma, iv, 2 mg/kg): < 5 ng/mL | recovery of PPD relative to that of compound K in feces ([3]; rat feces, after compound K IV 2 mg/kg): 3.4 fold | metabolic ratio (PPD to compound K ratio) in plasma ([3]; rat plasma, after compound K IV 2 mg/kg): 0.2–1.6 | Recovery48 h Feces [3, 14]: 46.6 ± 4.9 % of Dose | detection in plasma and fecal samples [3, 15]: detected | detection in urine samples [3, 15]: not detected | concentration at 48 h [4, 16]: < 5 ng/mL | detection in plasma and fecal samples [4, 17]: detected | detection in urine samples [4, 17]: not detected | recovery of PPD relative to that of compound K in feces ([4]; mouse feces, after compound K IV 2 mg/kg): 1.2 fold | metabolic ratio (PPD to compound K ratio) in plasma ([4]; mouse plasma, after compound K IV 2 mg/kg): 0.02–0.08 | Recovery48 h Feces [4, 18]: 34.4 ± 5.8 % of Dose | presence in bile samples collected over 12 h ([5]; bile-cannulated rats, after compound K IV 2 mg/kg): without PPD | detection in plasma samples ([5]; bile-cannulated rats, after compound K IV 2 mg/kg, 2 mg/kg): could not be detected | detection in plasma samples at 8 h ([5]; control rats (non-bile cannulated), after compound K IV 2 mg/kg, not present in 2 h sample): detected | amount in intestinal fecal samples, 12 h compared to 2 h ([5]; rats without bile cannulation, after compound K IV 2 mg/kg): greater in the 12 h samples compared to the 2 h samples

CC(C)=CCCC(C)(OC1OC(CO)C(O)C(O)C1O)C1CCC2(C)C1C(O)CC1C3(C)CCC(O)C(C)(C)C3CCC12C [compound K, 20-O-beta-(D-Glucopyranosyl)-20(S)-protopanaxadiol]
increase of AUC by high-fat meal compared with fasting group ([1]; 200 mg compound K tablet): 2.2 fold | increase of Cmax by high-fat meal compared with fasting group ([1]; 200 mg compound K tablet): 2.0 fold | Cmax ([6]; 12 Japanese subjects, single oral fermented ginseng tablet (274.4 mg total; 2.2 mg as compound K)): 41.5 ng/mL | Cmax ([6]; subjects given non-fermented Korean red ginseng extract (3 g total; 0 mg as compound K)): 3.2 to 24.8 ng/mL | mean Cmax ([6]; subjects given oral fermented Korean red ginseng (3 g total; 10.9 mg as compound K)): 254.5 ng/mL | LogP value [2]: 3.85 | aqueous solubility [7]: 33 µg/mL (≈ 53 µM) | permeability (Caco-2 cells): 0.5–2 × 10^−6 cm/s | liver to plasma concentration ratios with rifampin pre-treatment versus control (Oatp transporters [8]): decreased | plasma concentration of compound K with rifampin pre-treatment versus control (Oatp transporters [8]): increased | AUC increase ([9]; intravenous injection, dose range 1–10 mg/kg (dose increase 10-fold)): 11.6 fold | AUC increase ([9]; oral administration, dose range 5–20 mg/kg (dose increase four-fold)): 75.8 fold | liver to plasma concentration ratios with rifampin pre-treatment versus control (Oatp transporters [10]): decreased | plasma concentration of compound K with rifampin pre-treatment versus control (Oatp transporters [10]): increased | AUC ratios of other tissues (kidney, heart, lung, pancreas, testis, brain) to plasma [11]: much lower than the liver/plasma AUC ratio | Kp ([11]; male, ICR, mouse, liver (relative to plasma), 0.17-24 h, read-out: liver to plasma AUC ratio): 16.7 | AUC increase in P-gp knock-out mice compared to wild-type mice (P-glycoprotein (P-gp)): 23.5 fold | AUC(0-inf) ([3]; SD, rat, plasma, iv, 2 mg/kg): 670 ± 284 ng·h/mL | AUC(0-t) ([3]; SD, rat, plasma, iv, 2 mg/kg): 639 ± 299 ng·h/mL | C0 ([3]; SD, rat, plasma, iv, 2 mg/kg): 75.3 ± 23.3 ng/mL | MRT ([3]; SD, rat, plasma, iv, 2 mg/kg): 8.9 ± 0.4 h | Vd ([3]; SD, rat, plasma, iv, 2 mg/kg): 31.8 ± 3.1 L/kg | clearance ([3]; SD, rat, plasma, iv, 2 mg/kg): 59 ± 21.8 mL/min/kg | half-life ([3]; SD, rat, plasma, iv, 2 mg/kg): 7.3 ± 0.4 h | Recovery48 h Feces [3, 14]: 13.8 ± 7.1 % of Dose | Feces48 h (fecal recovery) ([3]; rat, compound K IV 2 mg/kg, 48 h, 2 mg/kg): 13.8 % of dose and ~13.8 ± 7.1 % of dose | CL and Vd, fold larger in rats than in mice ([3]; rats versus mice, compound K IV 2 mg/kg): about five-fold larger | AUC ratios of other tissues (kidney, heart, lung, pancreas, testis, brain) to plasma [12]: much lower than the liver/plasma AUC ratio | Kp ([12]; male, SD, rat, liver (relative to plasma), 0.17-24 h, read-out: liver to plasma AUC ratio): 11.1 | AUC(0-t) [4, 16]: 3760 ± 1640 ng·h/mL | C0 [4, 16]: 400 ± 137 ng/mL | MRT [4, 16]: 11.8 ± 2 h | Vd [4, 16]: 7.08 ± 2.6 L/kg | clearance [4, 16]: 10.4 ± 4.9 mL/min/kg | half-life [4, 16]: 11.4 ± 1.5 h | Recovery48 h Feces [4, 18]: 28.4 ± 5.9 % of Dose | Recovery48 h Urine [4, 18]: 0.02 ± 0.01 % of Dose | AUC(0-inf) [5, 19]: 235 ± 126 ng·h/mL | half-life [5, 19]: 0.78 ± 0.11 h | AUC(0-t) [5, 19]: 211 ± 87.3 ng·h/mL | C0 [5, 19]: 436 ± 326 ng/mL | AUC(0-inf) [5, 20]: 517 ± 249 ng·h/mL | half-life [5, 20]: 2.4 ± 0.61 h | AUC(0-t) [5, 20]: 496 ± 253 ng·h/mL | C0 [5, 20]: 451 ± 192 ng/mL | Bile12 h (biliary excretion) ([5]; bile cannulated rat, compound K IV 2 mg/kg, bile collected for 12 h): 39.1 ± 5.7 % of dose | elimination constant ([5]; bile-cannulated rats, one-compartment model, estimated using 5 points, r^2 0.92): 0.90 h⁻¹ | elimination constant ([5]; non-bile cannulated (control) rats, estimated using 3 points, r^2 0.94): 0.29 h⁻¹
